Source: patent publication US12370241B2, “Nasal powder formulation for treatment of hypoglycemia” (AMPHASTAR PHARMACEUTICALS, INC., priority 2015, dated 2025)
Like-named read-outs stand apart in the source and are kept apart here.

Tests used:
[1] = test system: adults with hypoglycemia; details: cited from earlier work
[2] = test system: patients with type 1 diabetes; assay: Phase III crossover study, intranasal vs IM glucagon after insulin-induced hypoglycemia (Example 9); assay type: in vivo, human; details: post-dosing
Experimental: A multiple center, randomized, two-way, crossover Phase III study in which patients with type 1 diabetes (T1D, n=75) were enrolled to evaluate the effectiveness and safety of a single dose of intranasally administered glucagon (the powder that is the subject of this invention) compared to glucagon administered by IM injection following insulin-induced hypoglycemia was conducted. The primary endpoint in this study was the proportion of patients who achieved an increase in blood glucose levels to ≥70 mg/dL within 30 minutes of treatment with glucagon or a […] increment in blood glucose within 30 minutes of treatment with glucagon. The protocol used insulin to reduce blood glucose levels to the hypoglycemic range (target nadir of <50 mg/dL).

[3] = test system: children with type 1 diabetes with induced hypoglycemia; details: injected (SC) (Stenninger 1993); cited from earlier work
[4] = water; cited from earlier work

Row | Substance | Time for which glucose levels continued to increase after administration ([1]; adults with hypoglycemia, injected (Hvidberg 1994; Rosenfalck 1992)) | Time after dosing at which glucose levels reach a plateau ([1]; adults with type 1 diabetes and insulin-induced hypoglycemia, injected (Rosenfalck 1992)) | Time for which glucose levels continued to increase after administration ([1]; healthy adults with insulin induced hypoglycemia, injected (Hvidberg 1994)) | Time by which blood glucose increased to within the normal range in most subjects [2] | Time for which plasma glucose levels continued to rise [3] | Aqueous solubility [4]
1 | glucagon [injected glucagon] | at least 90 minutes | at least 90 minutes | at least 90 minutes | about 15 minutes | at least 45 minutes | –
2 | hydroxylpropyl-β-CD [HP-β-CD] | – | – | – | – | – | higher aqueous solubility than α-CD
